Measured values reported in publication PMC7756341, “Liposomal FRET Assay Identifies Potent Drug‐Like Inhibitors of the Ceramide Transport Protein (CERT)” (Chemistry (Weinheim an Der Bergstrasse, Germany), 2020).

Target: T1, CERT (Homo sapiens, UniProt Q9Y5P4)
T1 construct: made in house; host or cells: E. coli BL21 (DE3), pET-28a(+)
T1 sequence (Q9Y5P4 1-598 isoform Q9Y5P4-2): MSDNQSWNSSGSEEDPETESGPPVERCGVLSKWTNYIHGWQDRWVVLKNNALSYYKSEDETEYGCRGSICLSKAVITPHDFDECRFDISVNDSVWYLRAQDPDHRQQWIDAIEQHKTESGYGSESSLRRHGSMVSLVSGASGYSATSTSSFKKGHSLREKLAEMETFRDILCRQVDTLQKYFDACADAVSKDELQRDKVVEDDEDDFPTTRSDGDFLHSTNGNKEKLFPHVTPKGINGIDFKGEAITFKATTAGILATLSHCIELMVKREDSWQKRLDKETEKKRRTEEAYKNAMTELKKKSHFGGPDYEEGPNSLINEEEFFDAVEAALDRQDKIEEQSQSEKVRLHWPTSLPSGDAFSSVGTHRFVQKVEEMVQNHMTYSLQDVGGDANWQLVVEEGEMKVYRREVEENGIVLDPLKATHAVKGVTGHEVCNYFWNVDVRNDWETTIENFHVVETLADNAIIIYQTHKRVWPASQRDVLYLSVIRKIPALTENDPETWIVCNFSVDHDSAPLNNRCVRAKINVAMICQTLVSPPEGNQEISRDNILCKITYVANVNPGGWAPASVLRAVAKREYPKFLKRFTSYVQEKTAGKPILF
Test: Liposomal FRET CERT transfer assay (NBD-Cer/NR-Cer), 96-well
Format: biochemical
Settings: dose-response
Excerpt: 2. Assessment of CERT-transfer Activity
2.1 Reagents and materials
Egg phosphatidylcholine (PC) and egg phosphatidylethanolamine (PE) were purchased from Sigma. Fluorescence (nitrobenzoxadiazole (NBD), 7-Methoxycumarin-3-carboxylat (MCC), 9-Diethylamino-5-oxo-5H-benzo[a]phenoxazin-2-yl (NR)) labeled-ceramide, were chemically synthesized (section 5). (1R,3S) and (1R, 3R) -N-(3Hydroxy-1-hydroxymethyl-3-phenylpropyl)- dodecamide (HPA-12) were synthesized as previously described.
Two donor and acceptor liposomes were prepared one acts as donor liposome (NBD-Cer or MCC-Cer) and the other as acceptor liposome (NR-Cer or NBD-Cer). The donor and acceptor liposomes were mixed in proper percentage for establishing two fluorescence resonance energy transfer (FRET) systems (MCC/NBD-ceramide system, or NBD/ NR-ceramide system). The stock solutions of the phospholipids and the fluorescently-labeled ceramide were prepared by dissolving in a mixture of methanol:chloroform (1:1). The liposomes were prepared by mixing […] phosphatidylcholine, 333 µmol phosphatidylethanolamine, and […] fluorescently-labeled ceramide (4:1:1 molar ratio) in siliconized Eppendorf tubes. The mixture was dried under argon stream to yield a waxy lipid film. The obtained waxy residue was hydrated with Tris.HCl buffer (1mL, 2 mM, pH 7.4) to a final concentration of 2 mM and the resulting mixture was vortexed for 1 min. The lipid mixture was subjected to 6 freeze-thawing cycles with liquid nitrogen and shaking incubator at 37 °C. Afterwards, the lipid suspension was sonicated with a Cup-Horn sonicator for 20 sec, followed by vigorous shaking on vortex for 1 min. Finally, the lipid mixture was extruded with a mini extruder (Avanti polar lipids) by forcing the suspension through two polycarbonate filters with 100 nm pore size for 13 times to afford a solution of liposome type.
2.4 Development of high throughput screening CERT-assay (96-well plate format) The assay was performed in non-binding clear-bottom 96-well microplate (Greiner Bio-One). […] The plate was placed in the microplate reader (LABTECH) at 30°C with shaking. The fluorescence was measured from the bottom over 1h (number of cycles 35, delay 70 sec) with excitation filter 485 nm and emission filter 640 nm (for NBD-Cer/NR-ceramide FRET system) or excitation filter 347 nm and emission filter 536 nm (for Coumarin (MMC-Cer), NBD-ceramide (NBD-Cer) FRET system). The transfer efficiency was calculated using the formula: Ix = I0(À1-X)/I(À2-Y), where À1 is the average of the florescence of the control of liposome mixture in Tris.HCl buffer, X is the average of the fluorescence of the buffer alone, À2 is the fluorescence average of the assay mixture, Y is the fluorescence average of the CERT aliquot with […]

| Structure (SMILES) | activity in the transfer assay |
| --- | --- |
| CCCC(=O)OCOC(=O)C1=C(C)NC(C)=C(C(=O)OC)C1c1cccc(Cl)c1Cl (stereo not shown) [6B11, Clevidipine butyrate] | high activity |
| O=C(NC1CCN(CCCCC2(C(=O)NCC(F)(F)F)c3ccccc3-c3ccccc32)CC1)c1ccccc1-c1ccc(C(F)(F)F)cc1 [8E8, lomitapide] | high activity |
| CC1=NN(c2ccc(C)c(C)c2)C(=O)/C1=N\Nc1cccc(-c2cccc(C(=O)O)c2)c1O [17C9, Eltrombopag] | weak dose‐response |
| Cc1cc(C2=NOC(c3cc(Cl)cc(Cl)c3)(C(F)(F)F)C2)ccc1C(=O)NCC(=O)NCC(F)(F)F (stereo not shown) [20D5, Fluralaner] | high activity |
